Laboratory results published in ChEMBL document CHEMBL3244077, “Sycnthesis of quinazoline analogues of folic acid modified at postion 10” (J Med Chem, 1977).

Experiments:
L1210 [1] = assay: Antitumor activity against mouse L1210 cells allografted in mouse assessed as increase in host survival at 75 mg/kg, ip administered as single dose on day 1 following tumor implantation; type: functional; details: 24 h, route intraperitoneal
L1210 [2] = assay: Antitumor activity against mouse L1210 cells allografted in mouse assessed as increase in host survival at 200 mg/kg, ip administered as single dose on day 1 following tumor implantation; type: functional; details: 24 h, route intraperitoneal
L1210 [3] = assay: Antitumor activity against mouse L1210 cells allografted in mouse assessed as increase in host survival at 150 mg/kg, ip administered as single dose on day 1 following tumor implantation; type: functional; details: 24 h, route intraperitoneal
Mus musculus = assay: Acute toxicity in mouse […] with mouse L1210 cells at 150 mg/kg, ip administered as single dose on day 1 following tumor implantation; type: organism-based; set-up: dose 150 mg/kg, route intraperitoneal; details: in vivo
L1210 [4] = assay: Antitumor activity against mouse L1210 cells allografted in mouse assessed as increase in host survival at 50 mg/kg, ip administered as single dose on day 1 following tumor implantation; type: functional; details: 24 h, route intraperitoneal
L1210 [5] = assay: Antitumor activity against mouse L1210 cells allografted in mouse assessed as increase in host survival at 100 mg/kg, ip administered as single dose on day 1 following tumor implantation; type: functional; details: 24 h, route intraperitoneal
L1210 [6] = assay: Antitumor activity against mouse L1210 cells allografted in mouse assessed as increase in host survival at 25 mg/kg, ip administered as single dose on day 1 following tumor implantation; type: functional; details: 24 h, route intraperitoneal

SMILES | survival at 75 mg/kg (L1210 [1]) | survival at 200 mg/kg (L1210 [2]) | survival at 150 mg/kg (L1210 [3]) | Activity (Mus musculus) | survival at 50 mg/kg (L1210 [4]) | survival at 100 mg/kg (L1210 [5]) | survival at 25 mg/kg (L1210 [6])
Nc1nc(O)c2cc(COc3ccc(C(=O)N[C@@H](CCC(=O)O)C(=O)O)cc3)ccc2n1 | 6% | 14% | 28% | Non-toxic | – | – | –
Nc1nc(O)c2cc(CCc3ccc(C(=O)N[C@@H](CCC(=O)O)C(=O)O)cc3)ccc2n1 | 18% | – | 23% | Non-toxic | 14% | – | –
Nc1nc(O)c2cc(CSc3ccc(C(=O)N[C@@H](CCC(=O)O)C(=O)O)cc3)ccc2n1 | – | – | 22% | Non-toxic | – | 9% | –
CN(Cc1cnc2nc(N)nc(N)c2n1)c1ccc(C(=O)N[C@@H](CCC(=O)O)C(=O)O)cc1 [METHOTREXATE] | 48% | – | – | – | 61% | 81% | 68%
